Each structure is given as a SMILES string. pIC50: −log10 of the molar value. The source made the active and inactive calls. The calls are words filed in the database; no cut-off is given here.

Data set [1] deals with T1, C-C chemokine receptor type 2 (Homo sapiens, UniProt P41597). In words: Displacement of [125-I]MCP1 from CCR2 on human PBMC.
Target sequence in this assay (P41597 whole entry): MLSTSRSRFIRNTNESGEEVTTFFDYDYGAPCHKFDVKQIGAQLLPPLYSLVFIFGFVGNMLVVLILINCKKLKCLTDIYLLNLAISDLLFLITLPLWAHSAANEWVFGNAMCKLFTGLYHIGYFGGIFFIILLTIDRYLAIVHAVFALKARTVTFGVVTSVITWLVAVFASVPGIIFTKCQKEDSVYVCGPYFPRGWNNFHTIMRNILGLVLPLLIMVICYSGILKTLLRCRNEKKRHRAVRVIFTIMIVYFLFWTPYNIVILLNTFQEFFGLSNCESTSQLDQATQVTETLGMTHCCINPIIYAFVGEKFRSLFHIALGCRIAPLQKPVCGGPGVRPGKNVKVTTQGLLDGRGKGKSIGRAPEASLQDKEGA
Data set [2] addresses C-C chemokine receptor type 2 (Mus musculus) (UniProt P51683). In words: Binding affinity to mouse CCR2.
For data set [3], the target named is T1, C-C chemokine receptor type 2. The data set can be described thus: Displacement of [125-I]MCP1 from CCR2 on human PBMC at 1 uM.
Target sequence in this assay (P41597 whole entry, looked up): as the sequence (P41597 whole entry) above
In data set [4] the target is C-C chemokine receptor type 2 (Mus musculus) (UniProt P51683). The data set can be described thus: Antagonist activity at CCR2 in mouse monocytes assessed as inhibition of MCP1-induced cAMP depression. It is filed as functional, cell-based.
Data set [5] has the same target. In words: Antagonist activity at CCR2 in mouse monocytes assessed as inhibition of MCP1-induced calcium flux. Type of data set: functional, cell-based.
Data set [6] is described as follows: Oral bioavailability in mouse. Type of data set: ADME, organism-based. The conditions noted are these: in vivo.
For data set [7], the species on record is Mus musculus. In words: Selectivity for mouse CCR2 over mouse CCR2.
Data set [8] is described as follows: Clearance in mouse. Type of data set: ADME, organism-based. The conditions noted are these: in vivo.
Data set [9] has as its target C-C chemokine receptor type 5 (Mus musculus, UniProt P51682). The data set can be described thus: Binding affinity to mouse CCR5.
For data set [10], the species on record is Mus musculus. In words: Selectivity for mouse CCR2 over mouse CCR1.

C-C chemokine receptor type 2 (Mus musculus), sequence (P51683 whole entry, looked up): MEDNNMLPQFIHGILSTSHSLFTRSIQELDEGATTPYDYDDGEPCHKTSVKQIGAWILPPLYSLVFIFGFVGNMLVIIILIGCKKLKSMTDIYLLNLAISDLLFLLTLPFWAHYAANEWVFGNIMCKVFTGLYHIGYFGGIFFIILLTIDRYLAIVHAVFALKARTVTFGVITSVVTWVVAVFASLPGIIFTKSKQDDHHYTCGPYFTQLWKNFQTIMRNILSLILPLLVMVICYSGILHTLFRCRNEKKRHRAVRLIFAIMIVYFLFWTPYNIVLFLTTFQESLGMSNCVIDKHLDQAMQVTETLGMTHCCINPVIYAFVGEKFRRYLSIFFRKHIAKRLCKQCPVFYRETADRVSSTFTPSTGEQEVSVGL
C-C chemokine receptor type 5, sequence (P51682 whole entry): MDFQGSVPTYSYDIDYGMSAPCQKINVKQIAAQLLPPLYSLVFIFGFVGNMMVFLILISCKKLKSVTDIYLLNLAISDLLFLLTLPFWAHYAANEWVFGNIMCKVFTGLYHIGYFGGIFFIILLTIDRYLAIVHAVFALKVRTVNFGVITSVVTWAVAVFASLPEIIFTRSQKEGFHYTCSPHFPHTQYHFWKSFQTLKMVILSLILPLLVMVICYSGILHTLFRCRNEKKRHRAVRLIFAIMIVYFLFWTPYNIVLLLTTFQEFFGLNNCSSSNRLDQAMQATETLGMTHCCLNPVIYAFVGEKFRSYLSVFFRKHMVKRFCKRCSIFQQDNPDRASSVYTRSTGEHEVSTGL

Regarding `CCC[C@H](O)[C@H](CNCc1ccc(C)cc1C)N1CC[C@H](NC(=O)c2cc(C(F)(F)F)ccc2NC(=O)OC(C)(C)C)C1=O`, the pIC50 in data set [1] is 5.98.
Same read-out and setting: under `CCC[C@H](O)[C@H](CNCc1ccc(C)cc1C)NC(=O)CC(=O)Nc1cc(OC)cc(C(F)(F)F)c1` stands 7.62; under `Cc1ccc(CNC[C@H](NC(=O)CNC(=O)c2cccc(C(F)(F)F)c2)[C@H](O)CC(C)(C)C)c(C)c1`, 6.22.
With `Cc1ccc(CNC[C@H](NC(=O)CNC(=O)c2cccc(C(F)(F)F)c2)[C@@H](O)C(C)C)c(C)c1`, the pIC50 in data set [1] is 7.19.
As for `CCC[C@H](O)[C@H](CNCc1ccc(C)cc1C)NC(=O)CNC(=O)c1cc(C(F)(F)F)ccc1NC(C)(C)C`, the negative-log IC50 (pIC50) in data set [1] is 8.13.
On the same count and under the same terms, under `CCC[C@H](O)[C@H](CNCc1ccc(C)cc1C)NC(=O)CC(=O)Nc1cc(C(F)(F)F)ccc1N` stands 7.37; under `Cc1ccc(CNC[C@H](NC(=O)CNC(=O)c2cc(C(F)(F)F)ccc2N)C(C)(C)O)c(C)c1`, 6.80.
Turning to `CCC[C@H](O)[C@H](CNCc1ccc(C)cc1C)NC(=O)CNC(=O)c1cccc(C(F)(F)F)c1`, the inhibition result in data set [2] is “Active”.
In turn, `CCCNc1cc(NC(=O)CC(=O)N[C@@H](CNCc2ccc(C)cc2C)[C@@H](O)CCC)cc(C(F)(F)F)c1` gave a pIC50 in data set [1] of 7.70.
The same measure, in the same setting: the value for `CCC[C@H](O)[C@H](CNCc1ccc(C)cc1C)NC(=O)CC(=O)Nc1cc(NC)cc(C(F)(F)F)c1` was 8.15; that for `Cc1ccc(CNC[C@H](NC(=O)CNC(=O)c2cccc(C(F)(F)F)c2)[C@@H](O)CC(C)(C)C)c(C)c1` was 7.72; that for `Cc1ccc(CNC[C@H](NC(=O)CNC(=O)c2cccc(C(F)(F)F)c2)[C@H](O)C(C)C)c(C)c1` was 7.00.
As to `Cc1ccc(CNC[C@H](NC(=O)CNC(=O)c2cccc(C(F)(F)F)c2)[C@@H](O)CC(C)C)c(C)c1`, the inhibition entry in data set [2] is “inactive”.
As for `CCC[C@H](O)[C@H](CNCc1ccc(C)cc1C)NC(=O)CNC(=O)c1cc(N)cc(C(F)(F)F)c1`, in data set [1], the pIC50 was 8.17.
On the same count and under the same terms, the value for `CCC[C@H](O)[C@H](CNCc1ccc(C)cc1C)N1CC[C@H](NC(=O)c2cc(C(F)(F)F)ccc2N)C1=O` was 6.05.
`CCC[C@@H](O)[C@H](CNCc1ccc(C)cc1C)NC(=O)CNC(=O)c1cc(C(F)(F)F)ccc1N` showed a pIC50 in data set [1] of 8.15. Besides, in data set [2], the inhibition entry was “inactive”.
In turn, `CCC[C@H](O)[C@H](CN(C)Cc1ccc(C)cc1C)NC(=O)CNC(=O)c1cc(C(F)(F)F)ccc1NC(=O)NC(C)C` had a pIC50 in data set [1] of 6.36.
Same read-out and setting: under `Cc1ccc(CNC[C@H](NC(=O)CNC(=O)c2cc(C(F)(F)F)ccc2N)C2(O)CCCC2)c(C)c1` stands 7.06; under `CCCC(O)(CCC)[C@H](CNCc1ccc(C)cc1C)NC(=O)CNC(=O)c1cc(C(F)(F)F)ccc1N`, 7.57; under `CCC[C@H](O)[C@H](CNCc1ccc(C)cc1C)NC(=O)CC(=O)Nc1cc(Br)cc(C(F)(F)F)c1`, 6.15.
On the same count and under the same terms, the value for `CC[C@H](O)[C@H](CNCc1ccc(C)cc1C)NC(=O)CNC(=O)c1cccc(C(F)(F)F)c1` was 7.19; that for `CCC[C@H](O)[C@H](CNCc1ccc(C)cc1C)NC(=O)CNc1n[nH]c2ccc(C(F)(F)F)cc12` was 8.00.
Same read-out and setting: the value for `CCC[C@H](O)[C@H](CNCc1ccc(C)cc1C)NC(=O)CC(=O)Nc1cc(C(F)(F)F)ccc1OC` was 6.66; that for `CCCC[C@@H](O)[C@H](CNCc1ccc(C)cc1C)NC(=O)CNC(=O)c1cccc(C(F)(F)F)c1` was 6.74; that for `Cc1ccc(CNC[C@H](NC(=O)CNC(=O)c2cccc(C(F)(F)F)c2)[C@@H](O)c2ccccc2)c(C)c1` was 7.00.
`CCC[C@H](O)[C@H](CNCc1ccc(C)cc1C)N1CC[C@H](NC(=O)c2cc(N)cc(C(F)(F)F)c2)C1=O`: the pIC50 in [1] is 5.91.
On the same count and under the same terms, under `Cc1ccc(CNC[C@H](NC(=O)CNC(=O)c2cccc(C(F)(F)F)c2)[C@H](O)c2ccccc2)c(C)c1` stands less than 6.00.
The molecule `CCC(O)(CC)[C@H](CNCc1ccc(C)cc1C)NC(=O)CNC(=O)c1cc(C(F)(F)F)ccc1N` had a pIC50 in [1] of 7.39.
On the same count and under the same terms, under `CC[C@H](O)[C@H](CNCc1ccc(C)cc1C)NC(=O)CNC(=O)c1cc(C(F)(F)F)ccc1N` stands 7.77; under `CCC[C@H](O)[C@H](CNCc1ccc(C)cc1C)NC(=O)CC(=O)Nc1cc(NCC)cc(C(F)(F)F)c1`, 8.35.
Molecule `CCC[C@H](O)[C@H](CNCc1ccc(C)cc1C)NC(=O)Cc1nc2ccc(C(F)(F)F)cc2[nH]1` had an inhibition (INH) in data set [3] of 6%.
Regarding `CCC[C@H](O)[C@H](CNCc1ccc(C)cc1C)NC(=O)Cc1nc2c(C(F)(F)F)cccc2[nH]1`, the negative logarithm of the IC50 (pIC50) in data set [1] was 7.31.
Same read-out and setting: the value for `CCC[C@H](O)[C@H](CNCc1ccc(C)cc1C)NC(=O)CNC(=O)c1cc(C(F)(F)F)ccc1NCc1ccccc1` was 8.03; that for `CCC[C@H](OC)[C@H](CNCc1ccc(C)cc1C)NC(=O)CNC(=O)c1cc(C(F)(F)F)ccc1N` was 7.96; that for `CCC[C@H](O)[C@H](CNCc1ccc(C)cc1C)NC(=O)CNC(=O)c1cc(C(F)(F)F)ccc1NC(C)C` was 8.28.
The same measure, in the same setting: under `CCCC[C@H](O)[C@H](CNCc1ccc(C)cc1C)NC(=O)CNC(=O)c1cccc(C(F)(F)F)c1` stands 8.30; under `CCC[C@H](O)[C@H](CNCc1ccc(C)cc1C)NC(=O)CNC(=O)c1cc(C(F)(F)F)ccc1NC(=O)NC`, 8.17.
On to `Cc1ccc(CNC[C@H](NC(=O)CNC(=O)c2cccc(C(F)(F)F)c2)[C@H](O)CC(C)C)c(C)c1`, for which the inhibition result in data set [2] was “inactive”.
Take `CCC[C@H](O)[C@H](CNCc1ccc(C)cc1C)NC(=O)CC(=O)Nc1cc(N)cc(C(F)(F)F)c1`: the negative logarithm of the IC50 (pIC50) in [1] was 8.42.
Same read-out and setting: the value for `CCC[C@H](O)[C@H](CNCc1ccc(C)cc1C)N1CC[C@@H](NC(=O)c2cc(C(F)(F)F)ccc2NC(=O)OC(C)(C)C)C1=O` was 4.55.
In the case of `CCC[C@H](O)[C@H](CNCc1ccc(C)cc1C)NC(=O)CNC(=O)c1cc(C(F)(F)F)ccc1NC(=O)NCC`, the outcome in data set [4] and in data set [5] was Active. In data set [6], this molecule registered a bioavailability of 29%. The values for the pIC50 in data set [1] and in data set [9] were 8.44 and 7.07, respectively. The Selectivity ratio in [7] and in data set [10] was greater than 1000 each time. This molecule had a clearance in data set [8] of 85 mL/min/kg. In [2], the inhibition result is “Active”.
`CCC[C@H](O)[C@H](CNCc1ccc(C)cc1C)NC(=O)CC(=O)Nc1cccc(C(F)(F)F)c1` gave a negative-log IC50 (pIC50) in [1] of 7.55.
Molecule `CCC[C@H](O)[C@H](CNCc1ccc(C)cc1C)NC(=O)CNC(=O)c1cc(C(F)(F)F)ccc1NC(=O)OC(C)(C)C` showed a pIC50 in data set [1] of 8.40. In addition, in [2], the inhibition result was “Active”.
On to `CCC[C@H](O)[C@H](CNCc1ccc(C)cc1C)NC(=O)CC(=O)Nc1cc(NC(=O)OC(C)(C)C)cc(C(F)(F)F)c1`, for which the negative logarithm of the IC50 (pIC50) in data set [1] was 6.47.
On the same count and under the same terms, the value for `CCC[C@H](O)[C@H](CNCc1ccc(C)cc1C)NC(=O)CC(=O)Nc1cc(C(=O)NCC)cc(C(F)(F)F)c1` was 6.80.
The same measure, in the same setting: the value for `CCC[C@H](O)[C@H](CNCc1ccc(C)cc1C)NC(=O)CNC(=O)c1cc(C(F)(F)F)ccc1NC(=O)N1CCC1` was 8.68; that for `CCC[C@H](O)[C@H](CNCc1ccc(C)cc1C)NC(=O)CNC(=O)c1cc(C(F)(F)F)ccc1NC(=O)N1CCNCC1` was 8.60.
On the same count and under the same terms, the value for `CCC[C@H](O)[C@H](CNCc1ccc(C)cc1C)NC(=O)CC(=O)Nc1cc(C(F)(F)F)ccc1NC(=O)OC(C)(C)C` was 6.62.
`CCC[C@H](O)[C@H](CNCc1ccc(C)cc1C)NC(=O)CC(=O)Nc1cc(C(F)(F)F)cc(C(F)(F)F)c1` gave a pIC50 in data set [1] of 6.16.
The same measure, in the same setting: the value for `CC[C@@H](O)[C@H](CNCc1ccc(C)cc1C)NC(=O)CNC(=O)c1cccc(C(F)(F)F)c1` was 6.41.
On to `CCC[C@H](O)[C@H](CNCc1ccc(C)cc1C)NC(=O)CNC(=O)c1cc(C(F)(F)F)ccc1N`, for which, in data set [1], the negative logarithm of the IC50 (pIC50) was 8.47. Moreover, the inhibition entry in [2] was “Active”.
As for `CCC[C@H](O)[C@H](CN(Cc1ccc(C)cc1C)C(C)C)NC(=O)CNC(=O)c1cc(C(F)(F)F)ccc1NC(=O)NC(C)C`, the pIC50 in data set [1] is 5.77.
Same read-out and setting: the value for `CCC[C@H](O)[C@H](CNCc1ccc(C)cc1C)NC(=O)CC(=O)Nc1cc(NC(=O)NCC)cc(C(F)(F)F)c1` was 7.40.
`CCC[C@H](O)[C@H](CNCc1ccc(C)cc1C)NC(=O)CNC(=O)c1cc(C(F)(F)F)ccc1NC(=O)N1CCOCC1` gave a negative-log IC50 (pIC50) in data set [1] of 8.42.
On the same count and under the same terms, under `CCC[C@H](O)[C@H](CNCc1ccc(C)cc1C)NC(=O)CNC(=O)c1cc(C(F)(F)F)ccc1NC(=O)N1CCCC1` stands 8.24.

Values taken from ChEMBL document CHEMBL2016523, “Discovery of an orally-bioavailable CC Chemokine Receptor 2 antagonist derived from an acyclic diaminoalcohol backbone” (Bioorg Med Chem Lett, 2012).
